We go through two molecules from BindingDB's records for doi:10.1016/j.bmcl.2004.01.072 (Array Biopharma, 2004).

In general, EC50 refers to the concentration giving half of the maximal effect. The low end stands for a more potent agent, the high end for a less potent agent.

A short description of the assay: Inhibition of MDC-stimulated chemotaxis in transfected murine cell line expressing human chemokine receptor 4.

Molecule `Cc1c(Cl)cccc1CNC(=O)C[C@H]1S[C@H](c2ccc(Cl)cc2Cl)N(CC(=O)NCCCN2CCCCC2)C1=O` [2-[(2R,5R)-5-[(3-Chloro-2-methyl-benzylcarbamoyl)-methyl]-2-(2,4-dichloro-phenyl)-4-oxo-thiazolidin-3-yl]-N-(3-piperidin-1-yl-propyl)-acetamide] came in with an EC50 of 2000 nM. To `C[C@@H](NC(=O)C[C@H]1S[C@H](c2ccc(Cl)cc2Cl)N(CC(=O)NCCCN2CCCCC2)C1=O)c1cccc2ccccc12` [2-{(2R,5R)-2-(2,4-Dichloro-phenyl)-5-[((R)-1-naphthalen-1-yl-ethylcarbamoyl)-methyl]-4-oxo-thiazolidin-3-yl}-N-(3-piperidin-1-yl-propyl)-acetamide] belongs 600 nM.
